Measurements taken from US8895580B2, “Quinolinone-pyrazolone M1 receptor positive allosteric modulators” (Merck Sharp & Dohme Corp., priority 2009, dated 2014).

biological target: T1, acetylcholine muscarinic M1 receptor (CHOnfat/hM1 cells) (Homo sapiens, UniProt P11229); assay: muscarinic M1 FLIPR intracellular calcium assay (positive allosteric modulation); format: cell-based; conditions: FLIPR Ca2+, 4 min preincubation, then EC20 acetylcholine (3 nM final), read-out: IP Value (inflection point)
T1 construct: expressed in transfected cells; host or cells: CHOnfat cells (CHOnfat/hM1; Geneticin-selected)
T1 sequence (P11229 1-460): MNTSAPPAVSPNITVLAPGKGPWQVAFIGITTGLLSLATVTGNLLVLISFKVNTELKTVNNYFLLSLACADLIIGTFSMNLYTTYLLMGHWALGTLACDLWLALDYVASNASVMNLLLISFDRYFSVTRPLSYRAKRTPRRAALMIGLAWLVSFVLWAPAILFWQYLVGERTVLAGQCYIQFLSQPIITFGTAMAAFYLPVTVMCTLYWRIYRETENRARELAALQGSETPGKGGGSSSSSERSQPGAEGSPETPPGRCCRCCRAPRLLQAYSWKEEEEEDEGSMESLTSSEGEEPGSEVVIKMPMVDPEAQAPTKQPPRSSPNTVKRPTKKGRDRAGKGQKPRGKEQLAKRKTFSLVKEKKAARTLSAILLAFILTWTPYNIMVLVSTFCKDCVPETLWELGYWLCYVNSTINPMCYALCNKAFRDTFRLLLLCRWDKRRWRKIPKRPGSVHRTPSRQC
Experimental: The assay studies the effect of one or several concentrations of test compounds on basal or acetylcholine-stimulated Ca^2+ levels using FLIPR.
Compounds are prepared and subjected to a preincubation period of 4 min. Thereafter, a single EC20 concentration of acetylcholine is added to each well (3 nM final). The intracellular Ca^2+ level of each sample is measured and compared to an acetylcholine control to determine any modulatory activity.
Cells: CHOnfat/hM1, hM2, hM3 or hM4 cells are plated 24 hr before the assay at a density of 18,000 cells/well (100 μL) in a 384 well plate. CHOnfat/hM1 and CHOnfat/hM3 Growth Medium: 90% DMEM (Hi Glucose); 10% HI FBS; 2 mM L-glutamine; 0.1 mM NEAA; Pen-Strep; and 1 mg/ml Geneticin, are added. For M2Gqi5CHOnfat and M4Gqi5CHOnfat cells, an additional 600 ug/ml hygromycin is added.
Equipment: 384 well plate, 1204 addition plate; 96-well Whatman 2 ml Uniplate Incubator, 37° C., 5% CO2; Skatron EMBLA-384 Plate Washer; Multimek Pipetting System; Genesis Freedom 200 System; Mosquito System; Temo Nanoliter Pipetting System; and FLIPR^384 Fluorometric Imaging Plate Reader System are used.
Buffers. Assay Buffer: Hanks Balanced Salt Solution, with 20 mM Hepes, 2.5 mM Probenecid (Sigma P-8761) first dissolved in 1 N NaOH, 1% Bovine Serum Albumin (Sigma A-9647). Dye Loading Buffer: Assay Buffer plus 1% Fetal Bovine Serum and Fluo-4AM/Pluronic Acid Mixture. 2 mM Fluo-4AM ester stock in DMSO (Molecular Probes F-14202) Concentration of 2 μM in buffer for a final concentration of 1 μM in Assay. 20% Pluronic Acid Solution stock, with concentration of 0.04% in Buffer, 0.02% in Assay.
65 μL of 2 mM Fluo-4AM are mixed with 130 μL of 20% Pluronic Acid. The resulting solution and 650 μL FBS is added to the assay buffer for a total volume of 65 mL. Positive Controls: 4-Br-A23187: 10 mM in DMSO; final concentration 10 μM. Acetylcholine: 10 mM in water, working stock at both 20 μM and 30 μM in assay buffer, final concentration of 10 μM. This is used to check the maximum stimulation of the CHOK1/hM1 cells, 20 μM (2×) acetylcholine is added in the preincubation part of the assay, and the 30 μM (3×) stock is added in the second part. (EC20)Acetylcholine: 10 mM in water, working stock of 9 nM (3×), and final concentration in assay is 3 nM. This is used after the preincubation with test compounds. Addition of the EC20 Acetylcholine to each well with a test compound will ascertain any modulator activity. 24 wells contain 3 nM Acetylcholine alone as a control.
Determining Activity of Putative Compounds:
Screening Plate Compounds are titrated in 96-well plates (columns 2-11), 100% DMSO, started at a concentration of 15 mM (150× stock concentration), and 3-fold serial dilutions using Genesis Freedom200 System. Four 96-well plates are combined into a 384-well plate using Mosquito Nanoliter Pipetting System by transferring 1 μl of serial diluted compounds to each well, and 1 mM acetylcholine (100× stock concentration) were added as a control. Using Temo, 49 μl assay buffer is added to each well of the 384-well plate right before assay.
In a 96-well Whatman 2 ml Uniplate, 9 nM Acetylcholine (3×) is pipetted into wells corresponding to the screening compounds, and into control wells. The 30 μM acetylcholine control (3×) is added into control wells, and the 3× agonist plate is transferred into a 384 well plate.
Cells are washed three times with 100 μl, of buffer, leaving 30 μl of buffer in each well. Using Multimek, 30 μL of Dye Loading Buffer is added into each well and incubated at 37° C., 5% CO2 for up to one hr.
After 60 min, the cells are washed three times with 100 μl of buffer, leaving 30 μl, of buffer in each well. The cell plate, screening plate, and agonist addition plates are placed on the platform in the FLIPR and the door closed. A signal test to check background fluorescence and basal fluorescence signal is performed. Laser intensity is adjusted if necessary. […]

Row | Structure (SMILES) | EC50 [nM]
1 | Cc1ccnc(N[C@H]2CCCC[C@@H]2n2cc3c(=O)n(-c4nccc(C)c4F)nc-3c3c(NCc4ccc(-n5cccn5)cc4)c(F)ccc32)c1F (racemic) [Example 733, (±)-8-Fluoro-2-(3-fluoro-4-methylpyridin-2-yl)-5-trans-2-[(3-fluoro-4-methylpyridin-2-yl)amino]cyclohexy}-9-({[4-(1H-pyrazol-1-yl)phenyl]methyl}amino)-2,5-dihydro-3H-pyrazolo[4,3-c]quinolin-3-one] | 653
2 | O=C1CCCCC1n1nc2c3ccccc3n(Cc3ccc(-n4cccn4)cc3)cc-2c1=O (racemic) [Example 720, (±)-2-(2-oxocyclohexyl)-5-{[4-(1H-pyrazol-1-yl)phenyl]methyl}-2,5-dihydro-3H-pyrazolo[4,3-c]quinolin-3-one] | 135
3 | O=c1c2cn(Cc3ccc(-n4cccn4)cc3)c3ccccc3c-2nn1-c1ccccc1F [Example 107, 2-Fluorophenyl-5-{[4-(1H-pyrazol-1-yl)phenyl]methyl}-2,5-dihydro-3H-pyrazolo[4,3-c]quinolin-3-one] | 59
4 | O=c1c2cn(Cc3c(F)cccc3F)c3ccccc3c-2nn1-c1ccccc1F [Example 294] | 824
5 | O=c1c2cn(Cc3ccc(-n4cccn4)cc3)c3ccccc3c-2nn1C1CCOCC1 [Example 428] | 359
6 | O=c1c2cn(Cc3ccc(-n4cncn4)cc3F)c3c(F)ccc(F)c3c-2nn1-c1ccccc1F [Example 84, 6,9-Difluoro-2-(2-fluorophenyl)-5-{[2-fluoro-4-(1H-1,2,4-triazol-1-yl)phenyl]methyl}-2,5-dihydro-3H-pyrazolo[4,3-c]quinolin-3-one] | 348
7 | O=c1c2cn(Cc3ccc(-n4cccn4)cc3)c3ccccc3c-2nn1-c1ccccc1CN1CCCC1 [Example 648, 5-{[4-(1H-Pyrazol-1-yl)phenyl]methyl}-2-[2-(pyrrolodin-1-ylmethyl)phenyl]-2,5-dihydro-3H-pyrazolo[4,3-c]quinolin-3-one] | 179
8 | O=c1c2cn(Cc3ccc(-c4ncco4)cc3)c3ccccc3c-2nn1-c1ccccc1F [Example 381] | 900
9 | O=c1c2cn(Cc3ccc(-c4ccccc4)cc3)c3ccccc3c-2nn1-c1ccccc1F [Example 8, 2-(2-Fluorophenyl)-5-(biphenyl-4-ylmethyl)-2,5-dihydro-3H-pyrazolo[4,3-c]quinolin-3-one] | 1990
10 | Cc1ccc(-c2ccc(Cn3cc4c(=O)n(-c5ccccc5F)nc-4c4ccccc43)nc2)cn1 [Example 258] | 246
11 | O=c1c2cn(Cc3nccc4ccccc34)c3ccccc3c-2nn1-c1ccccc1F [Example 128] | 1290
12 | CC(C)Cn1cc(-c2ccc(Cn3cc4c(=O)n(-c5ccccc5F)nc-4c4ccccc43)cn2)cn1 [Example 242] | 159
13 | O=C1CCc2cccc(-n3nc4c5ccccc5n(Cc5ccc(-n6cccn6)cc5)cc-4c3=O)c21 [Example 587] | 4.8
14 | CC(=O)N1CCC(n2nc3c4ccccc4n(Cc4ccc(-n5cccn5)cc4)cc-3c2=O)CC1 [Example 675, 2-(1-Acetylpiperidin-4-yl)-5-{[4-(1H-pyrazol-1-yl)phenyl]methyl}-2,5-dihydro-3H-pyrazolo[4,3-c]quinolin-3-one5] | 664
15 | O=c1c2cn(Cc3ccc(-n4cccn4)cc3)c3c(F)ccc(F)c3c-2nn1-c1ncccc1C(F)(F)F [Example 77, 6,9-Difluoro-5-{[4-(1H-pyrazol-1-yl)phenyl]methyl}-2-[3-(trifluoromethyl)pyridin-2-yl]-2,5-dihydro-3H-pyrazolo[4,3-c]quinolin-3 one] | 65
16 | CCNCc1ccccc1-n1nc2c3c(F)ccc(F)c3n(Cc3ccc(-n4cccn4)cc3)cc-2c1=O [Example 56] | 123
17 | CCN(CC)C(=O)Cn1nc2c3ccccc3n(Cc3ccc(-n4cccn4)cc3)cc-2c1=O [Example 690, N,N-Diethyl-2-(3-oxo-5-{[4-(1H-pyrazol-1-yl)phenyl]methyl}-3,5-dihydro-2H-pyrazol[4,3-c]quinolin-2-yl)acetamide] | 1250
18 | Cn1cnc(-n2nc3c4c(F)ccc(F)c4n(Cc4ccc(-n5cccn5)cc4)cc-3c2=O)c1 [Example 24, 6,9-Difluoro-2-(1-methyl-1H-imidazol-4-yl)-5-{[4-(1H-pyrazol-1-yl)phenyl]methyl}-2,5-dihydro-3H-pyrazolo[4,3-c]quinolin-3-one] | 103
19 | O=c1c2cn(Cc3ccc(-n4cccn4)cc3)c3ccccc3c-2nn1[C@H]1CCCC[C@@H]1O (racemic) [Example 508, (±)-2-(trans-2-Hydroxycyclohexyl)-5-{[4-(1H-pyrazol-1-yl)phenyl]methyl}-2,5-dihydro-3H-pyrazolo[4,3-c]quinolin-3-one] | 33
20 | N#Cc1cccc(F)c1-n1nc2c3ccccc3n(Cc3ccc(-n4cccn4)cc3)cc-2c1=O [Example 667, 3-Fluoro-2-(3-oxo-5-{[4-(1H-pyrazol-1-yl)phenyl]methyl}-3,5-dihydro-2H-pyrazolo[4,3-c]quinolin-2-yl)benzonitrile] | 22
21 | CNC(=O)c1ccccc1-n1nc2c3ccccc3n(Cc3ccc(-n4cccn4)cc3)cc-2c1=O [Example 612, N-Methyl-2-(3-oxo-5-{[4-(1H-pyrazol-1-yl)phenyl]methyl}-3,5-dihydro-2H-pyrazolo[4,3-c]quinolin-2-yl)benzamide] | 4870
22 | COc1ccc(Cn2cc3c(=O)n(-c4ccccc4F)nc-3c3ccccc32)cc1 [Example 1, 2-(2-Fluorophenyl)-5-{[4-(methoxy)phenyl]methyl}-2,5-dihydro-3H-pyrazolo[4,3-c]quinolin-3-one] | 415
23 | O=c1c2cn(Cc3ccc4[nH]ccc4c3)c3ccccc3c-2nn1-c1ccccc1F [Example 109, 2-(2-Fluorophenyl)-5-(1H-indol-5-ylmethyl)-2,5-dihydro-3H-pyrazolo[4,3-c]quinolin-3-one] | 90
24 | O=c1c2cn(Cc3ccc(-c4ccc5[nH]ccc5c4)cc3F)c3ccccc3c-2nn1-c1ccccc1F [Example 187, 5{[2-Fluoro-4-(1H-indol-5-yl)phenyl]methyl}-2-(2-fluorophenyl)-2,5-dihydro-3H-pyrazolo[4,3-c]quinolin-3-one] | 1640
25 | O=c1c2cn(Cc3ccc(-n4cccn4)cc3)c3c(F)ccc(F)c3c-2nn1-c1ccccc1CO [Example 55, 6,9-Difluoro-2-[2-(hydroxymethyl)phenyl]-5-{[4-(1H-pyrazol-1-yl)phenyl]methyl}-2,5-dihydro-3H-pyrazolo[4,3-c]quinolin-3-one] | 204
